# Where two headings read alike, the source gives them in different places.
# Tests used:
# plasma uric acid level = assay: Reference Example 15, plasma uric acid in oxonic acid-induced hyperuricemic rats, 28-day repeated administration; format: in vivo, oxonic acid-induced hyperuricemic rats (Crl:CD (SD)); details: oral once a day for 28 days, non-fasting; Compound 14 0.3 mg/kg; Days 1, 7, 14, 21, 28
# Procedure: Compound 14 suspended in a 1% aqueous methylcellulose solution was orally administered to oxonic acid-induced hyperuricemic rats at a dose of 0.3 mg/kg once a day for 28 days under non-fasting conditions. As a control, a 1% aqueous methylcellulose solution was used, and as a positive control, febuxostat was used.
# As rats, male Crl:CD (SD) rats (produced by Charles River Laboratories Japan, Inc.) were used. The rats were purchased at the age of 6 weeks, and the administration was started at the age of 7 weeks.
# Potassium oxonate was prepared by adding and suspending 10 g of potassium oxonate (Sigma-Aldrich Corp., Lot No. 03810 HD) to 200 mL of 1% methyl cellulose (1% MC) with a mixer. […]
# The collection time points were set to before administration (1 hour before) and 2 and 6 hours after administration on Days 1, 7, 14, 21, and 28, and blood was collected in an amount of about 300 μL per time point from the tail vein (n=7). […] The concentration of uric acid in the plasma was measured by HPLC (Shiseido Co., Ltd., current OSAKA SODA).
# To acquire the predose value and data for grouping, a 1% aqueous methylcellulose solution was orally administered to all rats 5 days before the start of administration, and the uric acid concentration in the plasma was measured according to the above-described method such as subcutaneous administration of potassium oxonate. […]
# serum uric acid level [1] = details: febuxostat 40 mg, case described in Non Patent Literature 3; first day of the administration (about 15 hours after the administration); cited from earlier work
# [2] = Test Example 2b, absorbability of solid dispersion containing Compound 14 in rats; format: in vivo, rats (Crl:CD (SD)); details: rat, single oral, 30 mg/kg as Compound 14, fasted
# Procedure: A single dose of 10 mg/kg or 30 mg/kg, as Compound 14, of the solid dispersions of Reference Example 2b and Comparative Reference Example 10b and the sample of Comparative Reference Example 11b suspended in a 1% carboxymethylcellulose aqueous solution was orally administered to fasted male rats (8 weeks old, Crl:CD (SD), Japan Charles River Laboratories). A crystalline drug substance of Compound 14 was used as a control (Comparative Reference Example 12b). A collection time was 0.5, 1, 2, 4, 8, and 24 hours after administration, and about 300 μL of blood was collected at each time point from vena caudalis (n=3). The obtained blood was centrifuged at 1500×g, 4° C. for 15 minutes to obtain a plasma. The concentration of Compound 14 in the plasma was measured by HPLC (Shiseido Company, Limited and Hitachi High-Technologies Corporation). A time to reach the highest concentration in the plasma (Tmax), the highest concentration in the plasma (Cmax) and an area under the plasma concentration-time curve (AUC) were calculated from the change in the concentration in the obtained plasma. Here, values in the table are the mean value±standard deviation of three examples.
# [3] = Distribution of administered Compound 14 in the eyeball; format: in vivo; details: Compound 14 administered to the rat
# eyeball = assay: Example 4, measurement of concentration of various molecules in eyeball; format: in vivo, RCS rats; parameters: unit not given here; details: Day 19 after 18 days oral administration
# Procedure: (§1) Three week old RCS rats (CLEA Japan, Inc., male) were purchased and randomly divided into a control group and a Compound 14 administration group. From 3.5 weeks of age, control and Compound 14 were orally administered daily once a day for 18 days. To the control group, 1% methylcellulose (Metrose (SM-15) manufactured by Shin-Etsu Chemical Co., Ltd.) was administered, and to the Compound 14 administration group, a preparation in which a solid dispersion of Compound 14 described in “Formulation Example 1” described later was suspended in 1% methylcellulose was administered at a dose of 5 mg/100 g body weight (1 mg/100 g body weight as Compound 14) per administration. Because xanthine stones are likely to occur in rodents due to XOR inhibition, Uralyt-U combination powder (manufactured by Nippon Chemiphar Co., Ltd.) was administered to both groups in drinking water at a concentration of 1% (w/v) in order to prevent/reduce xanthine stones. On Day 19 after completion of administration for 18 days, eyeballs of both eyes were collected from both groups, and a tissue image was observed on one eyeball.
# Concentrations of various molecules in one eyeball collected in Example 3 were measured. The eyeball stored at −80° C. was freeze-pulverized, a 5% perchloric acid solution in an amount of 2 times (w/w) was added, and the mixture was vortexed. The supernatant obtained by centrifugation at 15000 rpm and 4° C. for 5 minutes was neutralized with a 3 M potassium carbonate solution. The mixture was centrifuged again at 15000 rpm and 4° C. for 5 minutes, and the supernatant was equilibrated with 0.5 M sodium phosphate buffer to prepare an eyeball extraction solution. ATP, ADP, AMP, IMP, inosine, hypoxanthine, xanthine, uric acid, GTP, GDP, and GMP in the solution were measured by HPLC (HPLC: Shimadzu Corporation LC-20AD, Diode array detector: Shimadzu Corporation SPD-M20A), and the energy charge was calculated (Calculation formula: ([ATP]+½ [ADP])/([ATP]+[ADP]+[AMP])).
# serum = assay: Example 5, concentration of hypoxanthine and inosine in serum; format: in vivo, RCS rats; details: Day 11 after 10 days daily oral administration
# Procedure: In the same manner as in Example 3, to RCS rats, control or Compound 14 was orally administered daily for 10 days, and Uralyt-U combination powder (manufactured by Nippon Chemiphar Co., Ltd.) was administered in drinking water. On Day 11 after completion of administration for 10 days, blood was collected from both groups to prepare serum.
# RCS rats = assay: Example 3, suppressive action on retinal degeneration; format: in vivo; details: oral once a day for 18 days, 1 mg/100 g body weight as Compound 14 (solid dispersion of Formulation Example 1); versus control, p<0.05, n=4
# Procedure: as §1
# serum uric acid level [4] = assay: Reference Example 14, action of lowering serum uric acid level in healthy adult males; format: in vivo; details: for maximum rate of decrease in a blood uric acid level: solid dispersion capsules of Formulation Example 1
# Procedure: For comparative reference, the results are shown in FIG. 9 together with the result of a case described in Non Patent Literature 3 in which febuxostat (40 mg) was used.
# [5] = system: MOVAS-1 cells having XOR activity; assay: Example 2, ATP enhancing action in presence of uncoupler (CCCP); format: cell-based; details: 6 μM Compound 14, CCCP 10 μM, 30 minutes; versus control of the CCCP addition group
# Procedure: MOVAS-1 cells having XOR activity were used for Examples. All examinations were performed at n=3 for each number of samples. The medium of MOVAS-1 cells in a confluent state (with D-MEM/low glucose/10% FBS/100 uM Oxionate) was divided into a medium for a CCCP addition group and a medium for a CCCP non-addition group, and 6 μM Compound 14 was added to the media. Nothing was added to the control of each group. Thereafter, to the CCCP addition group, CCCP was added so as to have a final concentration of 10 μM. After standing for 30 minutes, deproteinization was performed by PCA, and then ATP, ADP, and AMP concentrations were measured using HPLC.
# [6] = system: MOVAS-1 cells having XOR activity; assay: Example 1, ATP enhancing action in hypoxic condition; format: cell-based; details: 1% oxygen, 4 hours
# Procedure: MOVAS-1 cells having XOR activity were used for Examples. All examinations were performed at n=3 for each number of samples. The medium of MOVAS-1 cells in a confluent state (with D-MEM/low glucose/10% FBS/100 μM Oxionate) was divided into a medium for a hypoxanthine addition group and a medium for a hypoxanthine non-addition group, 50 μM hypoxanthine, and 6 μM Compound 14, 10 μM febuxostat, or 100 μM allopurinol were added to the medium of the hypoxanthine addition group, and 6 μM Compound 14, 10 μM febuxostat, or 100 μM allopurinol was added to the medium of the hypoxanthine non-addition group. For the control of each group, only 50 μM hypoxanthine was added to the hypoxanthine addition group, and nothing was added to the hypoxanthine non-addition group. Thereafter, the media were allowed to stand for 4 hours under mixed gas conditions of 1% oxygen, 5% carbon dioxide, and 94% nitrogen. After deproteinization by PCA, ATP, ADP and AMP concentrations were measured using HPLC.
structure (smiles),measurement,setting,value
"Cc1nc(-c2ccc(OCC(C)C)c(C#N)c2)sc1C(=O)O [febuxostat, reference compound]",rate of change of the plasma uric acid level AUC (−1) to 6 with respect to the control group,plasma uric acid level,no clear increase was observed
same,maximum rate of decrease in a blood uric acid level,serum uric acid level [1],about 35%
"N#Cc1cc(-c2nc3c(O)ncnc3s2)ccc1Oc1ccccc1 [Comparative Reference Example 11b, 2-(3-Cyano-4-phenoxyphenyl)-7-hydroxythiazolo[5,4-d]pyrimidine]",AUClast,[2],15369 ± 7776 ng·h/mL
same,Cmax,[2],1724 ± 65 ng/mL
"N#Cc1cc(-c2nc3c(O)ncnc3s2)ccc1Oc1ccccc1 [Compound 14, 2-(3-Cyano-4-phenoxyphenyl)-7-hydroxythiazolo[5,4-d]pyrimidine]",rate of change of the plasma uric acid level AUC (−1) to 6 with respect to the control group,plasma uric acid level,increased with repeated administration
same,distribution in the eyeball,[3],hardly distributed in the eyeball
same,GTP,eyeball; NS p = 0.069 vs control,53.157 ± 8.352
same,Hypoxanthine,eyeball; NS p = 0.081 vs control,8.450 ± 3.244
same,Xanthine,eyeball; NS p = 0.095 vs control,1.739 ± 0.590
same,GMP,eyeball; p = 0. 000 vs control,2.458 ± 1.898
same,IMP,eyeball; p = 0.002 vs control,3.640 ± 1.122
same,ADP,eyeball; p = 0.004 vs control,55.134 ± 7.253
same,AMP,eyeball; p = 0.010 vs control,27.828 ± 8.547
same,Uric acid,eyeball; p = 0.027 vs control,1.344 ± 0.444
same,ATP,eyeball; p = 0.033 vs control,175.809 ± 25.506
same,GDP,eyeball; p = 0.036 vs control,8.115 ± 1.245
same,Inosine,eyeball; p = 0.047 vs control,13.063 ± 4.690
same,increase of the concentration of hypoxanthine in the serum versus control,serum,about 7 times
same,increase of the concentration of inosine in the serum versus control,serum,about 38 times
same,"Hypoxanthine, Serum (n = 4)",serum; p = 0.023 vs control,92.020 ± 47.670
same,"Inosine, Serum (n = 4)",serum; p = 0.026 vs control,9.950 ± 6.280
same,thinning of the outer nuclear layer and the cone-rod layer in the retinal tissue,RCS rats,significantly suppressed
same,serum uric acid level over the administration period,"serum uric acid level [4]; 40 mg once daily for 7 days, capsules containing micronized Compound 14",gradually decreased over time throughout the administration period
same,maximum rate of decrease in a blood uric acid level,"serum uric acid level [4]; 80 mg once daily for 7 days, seventh day (about 8 hours after the administration)",about 30%
same,maximum rate of decrease in a blood uric acid level,"serum uric acid level [4]; 80 mg once daily, first day of the administration (12 hours after the administration)",about 17%
same,total adenylate concentration,[5],higher than the total adenylate concentration of the control group of the CCCP addition group
same,"ATP enhancing action (ATP, ADP and AMP concentrations)","[6]; 6 μM Compound 14 versus 10 μM febuxostat or 100 μM allopurinol, with or without 50 μM hypoxanthine",exhibited effects at doses lower than febuxostat and allopurinol
same,"ATP enhancing action in hypoxic condition, hypoxanthine in combination","[6]; 50 μM hypoxanthine, 6 μM Compound 14 versus 10 μM febuxostat",significant difference between Compound 14 and febuxostat
"N#Cc1cc(-c2nc3c(O)ncnc3s2)ccc1Oc1ccccc1 [Comparative Reference Example 12b, 2-(3-Cyano-4-phenoxyphenyl)-7-hydroxythiazolo[5,4-d]pyrimidine]",AUClast,[2],1157 ± 261 ng·h/mL
same,Cmax,[2],239 ± 99 ng/mL
same,Tmax,[2],4.7 ± 3.1 h
